Test results published in the supplement of paper PMC10307832.

Tests used:
Test in all cases: relative viability (nuclei count vs DMSO), 5 days (fraction); higher = more cells survive
A549 = tested on: A549
How it was run: (§1)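 Each reported value is a median over duplicate plates. It expresses relative viability: treated-well nuclei count divided by vehicle-well nuclei count. Lung cancer cell lines in 1536-well plates were dosed by pin tool a day after seeding, alone with one drug or with a fixed anchor-drug dose plus five library-drug doses (not always all listed) in √10 steps, and nuclei were counted after 5 days.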

Calu-6 = tested on: Calu-6
How it was run: as §1

EBC-1 = tested on: EBC-1
How it was run: as §1

HCC-366 = tested on: HCC-366
How it was run: as §1

HCC-44 = tested on: HCC-44
How it was run: as §1

IA-LM = tested on: IA-LM
How it was run: as §1

NCI-H1299 = tested on: NCI-H1299
How it was run: as §1

NCI-H1437 = tested on: NCI-H1437
How it was run: as §1

NCI-H1703 = tested on: NCI-H1703
How it was run: as §1

O=C(O)c1ccc(-c2c[nH]c3ncc(-c4ccccc4)cc23)cc1C1CCCC1 + Cc1nc(NC(=O)N2CCC[C@H]2C(N)=O)sc1-c1ccnc(C(C)(C)C(F)(F)F)c1 [Alpelisib] (partner 2 µM)
relative viability (A549; first compound 0.04 µM): 0.728
relative viability (A549; first compound 0.1265 µM): 0.787
relative viability (A549; first compound 0.4 µM): 0.869
relative viability (A549; first compound 1.265 µM): 0.499
relative viability (Calu-6; first compound 0.04 µM): 1.04
relative viability (Calu-6; first compound 0.1265 µM): 0.978
relative viability (Calu-6; first compound 0.4 µM): 0.825
relative viability (Calu-6; first compound 1.265 µM): 0.682
relative viability (EBC-1; first compound 0.04 µM): 0.848
relative viability (EBC-1; first compound 0.1265 µM): 0.719
relative viability (EBC-1; first compound 0.4 µM): 0.939
relative viability (EBC-1; first compound 1.265 µM): 0.48
relative viability (HCC-366; first compound 0.04 µM): 0.443
relative viability (HCC-366; first compound 0.1265 µM): 0.721
relative viability (HCC-366; first compound 0.4 µM): 0.653
relative viability (HCC-366; first compound 1.265 µM): 0.32
relative viability (HCC-44; first compound 0.04 µM): 0.889
relative viability (HCC-44; first compound 0.1265 µM): 0.813
relative viability (HCC-44; first compound 0.4 µM): 0.848
relative viability (HCC-44; first compound 1.265 µM): 0.477
relative viability (IA-LM; first compound 0.04 µM): 0.77
relative viability (IA-LM; first compound 0.1265 µM): 0.913
relative viability (IA-LM; first compound 0.4 µM): 0.713
relative viability (IA-LM; first compound 1.265 µM): 0.737
relative viability (NCI-H1299; first compound 0.04 µM): 1
relative viability (NCI-H1299; first compound 0.1265 µM): 1.09
relative viability (NCI-H1299; first compound 0.4 µM): 1.05
relative viability (NCI-H1299; first compound 1.265 µM): 0.957
relative viability (NCI-H1437; first compound 0.04 µM): 0.998
relative viability (NCI-H1437; first compound 0.1265 µM): 0.951
relative viability (NCI-H1437; first compound 0.4 µM): 0.914
relative viability (NCI-H1437; first compound 1.265 µM): 0.882
relative viability (NCI-H1703; first compound 0.1265 µM): 0.405
relative viability (NCI-H1703; first compound 0.4 µM): 0.395
relative viability (NCI-H1703; first compound 1.265 µM): 0.332

NC(=O)Nc1cc(-c2cccc(F)c2)sc1C(=O)N[C@H]1CCCNC1 [AZD7762] + CC1(C)CCC(c2ccc(Cl)cc2)=C(CN2CCN(c3ccc(C(=O)NS(=O)(=O)c4ccc(N[C@H](CCN5CCOCC5)CSc5ccccc5)c(S(=O)(=O)C(F)(F)F)c4)cc3)CC2)C1 [Navitoclax] (partner 0.5 µM)
relative viability (A549; first compound 0.01 µM): 1.18
relative viability (A549; first compound 0.03162 µM): 1.29
relative viability (A549; first compound 0.1 µM): 1.2
relative viability (A549; first compound 0.3162 µM): 0.898
relative viability (A549; first compound 1 µM): 0.269
relative viability (Calu-6; first compound 0.01 µM): 0.813
relative viability (Calu-6; first compound 0.03162 µM): 0.812
relative viability (Calu-6; first compound 0.1 µM): 0.531
relative viability (Calu-6; first compound 0.3162 µM): 0.129
relative viability (Calu-6; first compound 1 µM): 0.091
relative viability (EBC-1; first compound 0.01 µM): 0.524
relative viability (EBC-1; first compound 0.03162 µM): 0.427
relative viability (EBC-1; first compound 0.1 µM): 0.292
relative viability (EBC-1; first compound 0.3162 µM): 0.299
relative viability (EBC-1; first compound 1 µM): 0.182
relative viability (HCC-366; first compound 0.01 µM): 1.1
relative viability (HCC-366; first compound 0.03162 µM): 1.09
relative viability (HCC-366; first compound 0.1 µM): 1.06
relative viability (HCC-366; first compound 0.3162 µM): 0.687
relative viability (HCC-366; first compound 1 µM): 0.165
relative viability (HCC-44; first compound 0.01 µM): 1.1
relative viability (HCC-44; first compound 0.03162 µM): 0.933
relative viability (HCC-44; first compound 0.1 µM): 1.01
relative viability (HCC-44; first compound 0.3162 µM): 0.901
relative viability (HCC-44; first compound 1 µM): 1.01
relative viability (IA-LM; first compound 0.01 µM): 0.992
relative viability (IA-LM; first compound 0.03162 µM): 0.858
relative viability (IA-LM; first compound 0.1 µM): 0.915
relative viability (IA-LM; first compound 0.3162 µM): 0.985
relative viability (IA-LM; first compound 1 µM): 0.187
relative viability (NCI-H1299; first compound 0.01 µM): 1.06
relative viability (NCI-H1299; first compound 0.03162 µM): 1.06
relative viability (NCI-H1299; first compound 0.1 µM): 1.09
relative viability (NCI-H1299; first compound 0.3162 µM): 1.08
relative viability (NCI-H1299; first compound 1 µM): 0.976
relative viability (NCI-H1437; first compound 0.01 µM): 1.09
relative viability (NCI-H1437; first compound 0.03162 µM): 1.04
relative viability (NCI-H1437; first compound 0.1 µM): 1.07
relative viability (NCI-H1437; first compound 0.3162 µM): 1.08
relative viability (NCI-H1437; first compound 1 µM): 1.05
relative viability (NCI-H1703; first compound 0.01 µM): 0.673
relative viability (NCI-H1703; first compound 0.03162 µM): 0.286
relative viability (NCI-H1703; first compound 0.1 µM): 0.253
relative viability (NCI-H1703; first compound 0.3162 µM): 0.178
relative viability (NCI-H1703; first compound 1 µM): 0.114

NC(=O)Nc1cc(-c2cccc(F)c2)sc1C(=O)N[C@H]1CCCNC1 [AZD7762] + CC(C)C[C@H](NC(=O)[C@H](Cc1ccccc1)NC(=O)c1cnccn1)B(O)O [Bortezomib] (partner 0.002 µM)
relative viability (Calu-6; first compound 0.01 µM): 1.03
relative viability (Calu-6; first compound 0.03162 µM): 0.96
relative viability (Calu-6; first compound 0.1 µM): 0.782
relative viability (Calu-6; first compound 0.3162 µM): 0.245
relative viability (Calu-6; first compound 1 µM): 0.152
relative viability (EBC-1; first compound 0.01 µM): 0.633
relative viability (EBC-1; first compound 0.03162 µM): 0.508
relative viability (EBC-1; first compound 0.1 µM): 0.566
relative viability (EBC-1; first compound 0.3162 µM): 0.493
relative viability (EBC-1; first compound 1 µM): 0.309
relative viability (HCC-366; first compound 0.01 µM): 1.1
relative viability (HCC-366; first compound 0.03162 µM): 1.04
relative viability (HCC-366; first compound 0.1 µM): 1.03
relative viability (HCC-366; first compound 0.3162 µM): 0.62
relative viability (HCC-366; first compound 1 µM): 0.0941
relative viability (HCC-44; first compound 0.01 µM): 0.797
relative viability (HCC-44; first compound 0.03162 µM): 0.804
relative viability (HCC-44; first compound 0.1 µM): 0.919
relative viability (HCC-44; first compound 0.3162 µM): 0.705
relative viability (HCC-44; first compound 1 µM): 0.862
relative viability (IA-LM; first compound 0.01 µM): 1.05
relative viability (IA-LM; first compound 0.03162 µM): 0.851
relative viability (IA-LM; first compound 0.1 µM): 1.22
relative viability (IA-LM; first compound 0.3162 µM): 1.14
relative viability (IA-LM; first compound 1 µM): 0.253
relative viability (NCI-H1299; first compound 0.01 µM): 1.07
relative viability (NCI-H1299; first compound 0.03162 µM): 1.04
relative viability (NCI-H1299; first compound 0.1 µM): 1.04
relative viability (NCI-H1299; first compound 0.3162 µM): 1.04
relative viability (NCI-H1299; first compound 1 µM): 0.964
relative viability (NCI-H1437; first compound 0.01 µM): 0.407
relative viability (NCI-H1437; first compound 0.03162 µM): 0.4
relative viability (NCI-H1437; first compound 0.1 µM): 0.56
relative viability (NCI-H1437; first compound 0.3162 µM): 0.58
relative viability (NCI-H1437; first compound 1 µM): 0.433
relative viability (NCI-H1703; first compound 0.01 µM): 0.409
relative viability (NCI-H1703; first compound 0.03162 µM): 0.182
relative viability (NCI-H1703; first compound 0.1 µM): 0.167
relative viability (NCI-H1703; first compound 0.3162 µM): 0.176
relative viability (NCI-H1703; first compound 1 µM): 0.124
